From PMC6268079, “Synthesis and Biological Evaluation of 2-(3-Fluoro-4-nitro phenoxy)-N-phenylacetamide Derivatives as Novel Potential Affordable Antitubercular Agents” (Molecules, 2012) come the findings set out here.

Data set [1] relates to M. tuberculosis H37Rv (ATCC 27294). Kind of data set: Antitubercular activity by microdilution method, M. tuberculosis H37Rv. Type of data set: cell-based. The settings on record: Mycobacterium tuberculosis, 264 h, growth similar to well inoculated with 10 CFU, read after 11 days by visual investigation, three replicates.
In data set [2] the test system is SKOV-3 ovarian carcinoma cells. Kind of data set: MTT-based cytotoxicity assay, SKOV-3. The data set is classed as cell-based. The note with it: Homo sapiens. As for the experimental part: (§1) Briefly, cells (2,500/well) were seeded in 96-well plates and cultured for 24 h, followed by treatment with the target compounds for another 48 h. MTT ([…], 20 μL) was added per well and incubated for another 2.5 h at 37 °C. Then the supernatant fluid was removed and 150 μL/well DMSO was added for 15–20 min. The absorbance (OD) of each well was measured at 570 nm, using a SpectraMAX M5 microplate spectrophotometer (Molecular Devices, Sunnyvale, CA, USA). The IC50 Values are means ± SEM of three independent experiments.
For orientation: Formazan colour is commonly taken as a measure of viable cells.

In data set [3] the test system is six different tumor cell lines. As to the kind of experiment: MTT-based cytotoxicity assay, six cell lines stated together. The protocol:
as §1

Data set [4] concerns HCT116 colorectal carcinoma cells. As to the kind of experiment: MTT-based cytotoxicity assay, HCT116. The note with it: Homo sapiens. The data set is classed as cell-based. The protocol:
as §1

Data set [5] concerns A375 human melanoma cells. As to the kind of experiment: MTT-based cytotoxicity assay, A375. The data set is classed as cell-based. As for the experimental part: as §1
The subject of data set [6] is Vero normal African green monkey kidney epithelial cells. Kind of data set: MTT-based cytotoxicity assay, Vero. The settings on record: for IC50: Chlorocebus sabaeus. The data set is classed as cell-based. The protocol: as §1
Data set [7] has as its system A549 lung adenocarcinoma epithelial cells. As to the kind of experiment: MTT-based cytotoxicity assay, A549. The data set is classed as cell-based. The note with it: Homo sapiens. As for the experimental part: as §1
Data set [8] relates to HepG2 hepatocellular liver carcinoma cells. As to the kind of experiment: MTT-based cytotoxicity assay, HepG2. The data set is classed as cell-based. The settings on record: Homo sapiens. As for the experimental part: as §1
In data set [9] the test system is Hela Henrietta Lacks strain cancer cells. Kind of data set: MTT-based cytotoxicity assay, Hela. The note with it: Homo sapiens. The data set is classed as cell-based. The protocol:
as §1

[10] abbreviates: SK-OV-3, SKOV-3, MTT, 48 h treatment, means ± SEM of three independent experiments, read-out: IC50.
The mark [11] stands for this setting: HCT-116, HCT116, MTT, 48 h treatment, means ± SEM of three independent experiments, read-out: IC50.
Where [12] appears, read: A-375, A375, MTT, 48 h treatment, means ± SEM of three independent experiments, read-out: IC50.
Where [13] appears, read: Vero normal cells, MTT, 48 h treatment, means ± SEM of three independent experiments, read-out: IC50.
Setting [14] is: A549, MTT, 48 h treatment, means ± SEM of three independent experiments, read-out: IC50.
The mark [15] stands for this setting: HepG2, MTT, 48 h treatment, means ± SEM of three independent experiments, read-out: IC50.
The mark [16] stands for this setting: Hela, MTT, 48 h treatment, means ± SEM of three independent experiments, read-out: IC50.

≈ marks a conversion by molar mass, not a printed value. Like-named read-outs stand apart in the source and are kept apart here. Some results are limits rather than exact numbers.

Take `COc1ccc(NC(=O)COc2ccc([N+](=O)[O-])c(F)c2)c(OC)c1` [Compound 3f, N-(2,4-Dimethoxyphenyl)-2-(3-fluoro-4-nitrophenoxy)acetamide]: the melting point – broadly, the temperature of the solid-liquid transition – was in the range of 174 to 175 °C. The lowest concentration to inhibit growth in [1] (MIC) was 64 µg/mL (≈ 183 µM).

`O=C(COc1ccc([N+](=O)[O-])c(F)c1)Nc1ccc(Cl)c(Cl)c1` [Compound 3b, N-(3,4-Dichlorophenyl)-2-(3-fluoro-4-nitrophenoxy)acetamide]: the melting point fell in the range of 175 to 176 °C. Further, the MIC (commonly the least concentration at which growth counts as inhibited) in data set [1] was 32 µg/mL (≈ 89.1 µM).

Consider `O=C(COc1ccc([N+](=O)[O-])c(F)c1)Nc1ccc(Br)cc1` [Compound 3i, N-(4-Bromophenyl)-2-(3-fluoro-4-nitrophenoxy)acetamide], for which the melting point lay in the range of 166 to 167 °C. Also, inhibition of growth in data set [1] (MIC) required 32 µg/mL (≈ 86.7 µM).

`O=C(COc1ccc([N+](=O)[O-])c(F)c1)Nc1ccccc1[N+](=O)[O-]` [Compound 3m, 2-(3-Fluoro-4-nitrophenoxy)-N-(2-nitrophenyl)acetamide] came in with a melting point of 201 to 202 °C. Further, the IC50 (in general, the concentration that inhibits the measured activity by half) in [2] (SK-OV-3, 48 h) was > 40 µM. In data set [3] (one bound stated for all six cell lines, read-out: IC50 against the tested six different cell lines), the IC50 is > 40 µM. Also, in data set [3] (result in words), the “inhibitory effects against six different tumor cell lines” value is “no inhibitory effects” and the “safety profile / toxicity in six different cell lines” value was “good safety profile”. Besides, in data set [4] (HCT-116, 48 h), the IC50 was > 40 µM. For the same molecule, the IC50 in [5] (A-375, 48 h) was > 40 µM. Besides, the concentration for half-maximal inhibition (IC50) in data set [6] (Vero, 48 h) is > 40 µM. In data set [6] (MTT assay, result in words), the “safety profile in a vero cell line” value is reported as “good safety profile”. For the same molecule, the concentration for half-maximal inhibition (IC50) in data set [7] (A549, 48 h) is > 40 µM. In data set [1], this molecule returned a minimal inhibitory concentration (MIC) of 4 µg/mL (≈ 11.9 µM). In addition, the IC50 in data set [8] (HepG2, 48 h) is > 40 µM. Besides, the IC50 in [9] (HeLa, 48 h) was > 40 µM.

In turn, `O=C(COc1ccc([N+](=O)[O-])c(F)c1)Nc1cccc(Cl)c1` [Compound 3a, N-(3-Chlorophenyl)-2-(3-fluoro-4-nitrophenoxy)acetamide] displayed a melting point of 150 to 151 °C. In addition, in data set [2] (setting [10]), the IC50 was > 40 µM. For the same molecule, in data set [4] (setting [11]), the IC50 was > 40 µM. The IC50 in data set [5] (setting [12]) is > 40 µM. The IC50 in [6] (setting [13]) was > 40 µM. Further, the IC50 in [7] (setting [14]) was > 40 µM. In addition, inhibition of growth in [1] (MIC) required 16 µg/mL (≈ 49.3 µM). For the same molecule, the IC50 in data set [8] (setting [15]) was > 40 µM. In addition, the IC50 in [9] (setting [16]) is > 40 µM.

Regarding `O=C(COc1ccc([N+](=O)[O-])c(F)c1)Nc1ccc(Br)cc1F` [Compound 3c, N-(4-Bromo-2-fluorophenyl)-2-(3-fluoro-4-nitrophenoxy)acetamide], the melting point was in the range of 160 to 162 °C. Also, in [1], the MIC was 32 µg/mL (≈ 82.7 µM).

`O=C(COc1ccc([N+](=O)[O-])c(F)c1)Nc1ccc(F)c(Cl)c1` [Compound 3h, N-(3-Chloro-4-fluorophenyl)-2-(3-fluoro-4-nitrophenoxy)acetamide] had a melting point of 166 to 167 °C. In data set [2] (setting [10]), the IC50 is > 40 µM. In addition, the IC50 in data set [4] (setting [11]) was > 40 µM. The IC50 in [5] (setting [12]) was > 40 µM. In data set [6] (setting [13]), the IC50 was > 40 µM. For the same molecule, the IC50 in data set [7] (setting [14]) was > 40 µM. The same molecule yielded an MIC in data set [1] of 16 µg/mL (≈ 46.7 µM). Also, the IC50 in data set [8] (setting [15]) was > 40 µM. Further, the IC50 in [9] (setting [16]) is > 40 µM.

In the case of `COC(=O)COc1ccc(NC(=O)COc2ccc(C)cc2C)cc1` [I, methyl 2-(4-(2-(2,4-dimethylphenoxy)acetamido)phenoxy)acetate], in data set [1], the MIC is 4 µg/mL (≈ 11.6 µM).

For the molecule `N#Cc1ccccc1NC(=O)COc1ccc([N+](=O)[O-])c(F)c1` [Compound 3j, N-(2-Cyanophenyl)-2-(3-fluoro-4-nitrophenoxy)acetamide], the melting point is 172 to 174 °C. This molecule had an MIC in data set [1] of 64 µg/mL (≈ 203 µM).

For the molecule `O=C(COc1ccc([N+](=O)[O-])c(F)c1)Nc1ccc(Br)cc1Cl` [Compound 3n, N-(4-Bromo-2-chlorophenyl)-2-(3-fluoro-4-nitrophenoxy)acetamide], the melting point fell in the range of 173 to 175 °C. In addition, it took 32 µg/mL (≈ 79.3 µM) to inhibit growth in data set [1] (MIC).

In turn, `O=C(COc1ccc([N+](=O)[O-])c(F)c1)Nc1cccc([N+](=O)[O-])c1` [Compound 3e, 2-(3-Fluoro-4-nitrophenoxy)-N-(3-nitrophenyl)acetamide] had a melting point of 199 to 201 °C. In addition, the lowest concentration to inhibit growth in data set [1] (MIC) was 64 µg/mL (≈ 191 µM).

Turning to `O=C(COc1ccc([N+](=O)[O-])c(F)c1)Nc1cc(C(F)(F)F)cc(C(F)(F)F)c1` [Compound 3g, N-(3,5-bis(Trifluoromethyl)phenyl)-2-(3-fluoro-4-nitrophenoxy)acetamide], the melting point was 168 to 169 °C. In addition, the IC50 in [2] (setting [10]) was 12.2 ± 1.3 µM. Also, the concentration for half-maximal inhibition (IC50) in data set [4] (setting [11]) worked out at 33.8 ± 2 µM. For the same molecule, the IC50 in data set [5] (setting [12]) is 22.6 ± 0.9 µM. Besides, the IC50 in data set [6] (setting [13]) is > 40 µM. Besides, the half-inhibitory concentration (IC50) in data set [7] (setting [14]) turned out to be 38.2 ± 1.5 µM. In data set [1], the MIC was 8 µg/mL (≈ 18.8 µM). Further, the IC50 in data set [8] (setting [15]) is 21.6 ± 1.1 µM. For the same molecule, the IC50 in data set [9] (setting [16]) is 20 ± 1.1 µM.

Regarding `O=C(COc1ccc([N+](=O)[O-])c(F)c1)Nc1ccc(OC(F)(F)F)cc1` [Compound 3l, 2-(3-Fluoro-4-nitrophenoxy)-N-(4-(trifluoromethoxy)phenyl)acetamide], the melting point lay within 146 to 148 °C. The minimal inhibitory concentration (MIC) in data set [1] was 32 µg/mL (≈ 85.5 µM).

For the molecule `O=C(COc1ccc([N+](=O)[O-])c(F)c1)Nc1ccc(C(F)(F)F)cc1` [Compound 3o, 2-(3-Fluoro-4-nitrophenoxy)-N-(4-(trifluoromethyl)phenyl)acetamide], the melting point lay in the range of 173 to 175 °C. The IC50 in [2] (setting [10]) turned out to be 28.6 ± 2.3 µM. Further, the IC50 in [4] (setting [11]) is > 40 µM. In addition, the IC50 in [5] (setting [12]) is 28.3 ± 1.2 µM. Further, the IC50 in data set [6] (setting [13]) was > 40 µM. In addition, the 50% inhibitory concentration (IC50) in data set [7] (setting [14]) is > 40 µM. In [1], the MIC is 16 µg/mL (≈ 44.7 µM). Moreover, in data set [8] (setting [15]), the IC50 is > 40 µM. The IC50 in data set [9] (setting [16]) is 33.8 ± 1.7 µM.

The molecule `Cc1ccc([N+](=O)[O-])cc1NC(=O)COc1ccc([N+](=O)[O-])c(F)c1` [Compound 3p, 2-(3-Fluoro-4-nitrophenoxy)-N-(2-methyl-5-nitrophenyl)acetamide] showed a melting point of 211 to 213 °C. The molecule further yielded an MIC in [1] of 64 µg/mL (≈ 183 µM).

On to `O=C(COc1ccc([N+](=O)[O-])c(F)c1)Nc1ccccc1C(F)(F)F` [Compound 3k, 2-(3-Fluoro-4-nitrophenoxy)-N-(2-(trifluoromethyl)phenyl)acetamide], for which the melting point lay within 146 to 147 °C. Further, in data set [1], the MIC was found to be 64 µg/mL (≈ 179 µM).

The molecule `NNC(=O)c1ccncc1` [Isoniazide] returned an MIC in [1] of 0.0625 µg/mL (≈ 0.456 µM).

Turning to `O=C(COc1ccc([N+](=O)[O-])c(F)c1)Nc1ccc(Cl)c(C(F)(F)F)c1` [Compound 3d, N-(4-Chloro-3-(trifluoromethyl)phenyl)-2-(3-fluoro-4-nitrophenoxy)acetamide], the melting point lay within 163 to 164 °C. Further, the IC50 in [2] (setting [10]) was > 40 µM. In addition, in data set [4] (setting [11]), the IC50 was > 40 µM. Besides, the IC50 in [5] (setting [12]) is > 40 µM. In addition, the IC50 in [6] (setting [13]) was > 40 µM. In addition, the half-inhibitory concentration (IC50) in data set [7] (setting [14]) was > 40 µM. The same molecule returned an MIC in data set [1] of 16 µg/mL (≈ 40.7 µM). For the same molecule, the IC50 in data set [8] (setting [15]) was > 40 µM. The half-inhibitory concentration (IC50) in data set [9] (setting [16]) is 33.2 ± 2.5 µM.
